Reference: ChEMBL document CHEMBL1127097, “Tetrazole amino acids as competitive NMDA antagonists” (Bioorg Med Chem Lett, 1993)

Key:
Mus musculus = assay: Minimum effective dose tested by ip administration for its ability to block NMDA induced lethality in mice.; type: functional; conditions: read-out: MED
[1] = biological target: Glutamate [NMDA] receptor; assay: Tested in vitro for the affinity against NMDA receptor by examining its ability to inhibit [3H]-CGS-19,755 binding; type: protein-complex assay
[2] = tested on: Glutamate [NMDA] receptor; assay: Tested in vitro for the affinity against NMDA receptor in a cortical wedge assay; A- Compound acted as […]; type: functional
[3] = biological target: Glutamate [NMDA] receptor; assay: Tested in vitro for the affinity against NMDA receptor in a cortical wedge assay; type: protein-complex assay
[4] = tested on: Glutamate [NMDA] receptor; assay: Tested in vitro for the affinity against NMDA receptor in a cortical wedge assay; A- compound acts as antagonist; type: functional

SMILES | minimal effective dose (Mus musculus) [mg/kg] | IC50 [1] [nM] | IC50 [2] | IC50 [3] [nM] | IC50 [4]
N[C@@H](CCc1nnn[nH]1)C(=O)O | > 160 | 1600 | Agonist | – | –
O=C(O)C1CN(CCCc2nnn[nH]2)CCN1 (centres undefined) | 40 | 3150 | – | 16300 | –
O=C(O)C1CN(Cc2nn[nH]n2)CCN1 (centres undefined) | > 80 | 1670 | – | 8200 | –
O=C(O)C1CN(CCc2nnn[nH]2)CCN1 (centres undefined) | 160 | 781 | – | 4700 | –
N[C@H](Cc1nnn[nH]1)C(=O)O | > 160 | 685 | – | > 100000 | –
N[C@H](CCc1nnn[nH]1)C(=O)O | > 160 | 925 | – | 31600 | –
O=C(O)[C@H]1C[C@@H](Cc2nnn[nH]2)CCN1 | 5 | 107 | – | 4200 | –
O=C(O)C1CN(CCCP(=O)(O)O)CCN1 (centres undefined) | 2.5 | 220 | – | 600 | –
N[C@H](CCCCCP(=O)(O)O)C(=O)O | 160 | 461 | – | 11100 | –
O=C(O)C1CN(CCCCc2nnn[nH]2)CCN1 (centres undefined) | > 80 | > 10000 | – | – | –
N[C@@H](Cc1nnn[nH]1)C(=O)O | > 160 | 639 | – | > 100000 | –
NC(CCCCCc1nnn[nH]1)C(=O)O (centres undefined) | > 160 | > 10000 | – | > 100000 | –
Cl.NC(CCCc1nnn[nH]1)C(=O)O (centres undefined) | > 160 | 1050 | – | – | Antagonist
Cl.NC(CCCCc1nnn[nH]1)C(=O)O (centres undefined) | > 160 | 10000 | – | – | Antagonist
Cl.NC(CCCCCCc1nnn[nH]1)C(=O)O (centres undefined) | > 160 | > 10000 | – | > 100000 | –
N[C@H](CCCP(=O)(O)O)C(=O)O | 160 | 177 | – | 3700 | –
O=C(O)[C@@H]1C[C@H](CP(=O)(O)O)CCN1 (single isomer, unassigned) [SELFOTEL] | – | 54 | – | 1600 | –
